Data published in US12662490B2, “Heterocyclic compounds” (Hoffmann-La Roche Inc., priority 2019, dated 2026).

Biological target: T1, MAGL (Homo sapiens, UniProt Q99685)
T1 sequence (Q99685 1-303): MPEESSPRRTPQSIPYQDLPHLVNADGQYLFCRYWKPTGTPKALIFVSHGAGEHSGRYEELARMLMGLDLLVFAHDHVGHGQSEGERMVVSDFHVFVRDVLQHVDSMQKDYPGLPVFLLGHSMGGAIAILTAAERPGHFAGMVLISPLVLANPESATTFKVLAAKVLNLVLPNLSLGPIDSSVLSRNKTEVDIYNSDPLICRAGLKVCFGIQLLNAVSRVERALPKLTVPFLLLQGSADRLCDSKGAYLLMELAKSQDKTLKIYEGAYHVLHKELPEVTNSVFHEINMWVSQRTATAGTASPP
Test: 2-AG assay (MAGL inhibitory activity; hydrolysis of 2-arachidonoylglycerol to arachidonic acid followed by mass spectrometry)
Assay type: biochemical
Details: 15 min preincubation at RT, 8 μM 2-arachidonoylglycerol, 30 min at RT, RapidFire MS readout
In short: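 Compounds (final 12.5 μM to […], 3-fold steps) preincubated 15 min at RT with MAGL ([…]) in 50 mM TRIS, 1 mM EDTA, Tween buffer. Reaction started with 8 μM 2-arachidonoylglycerol, run 30 min at RT, quenched with ACN containing d8-arachidonic acid. Arachidonic acid quantified by RapidFire SPE-triple quadrupole MS (negative ESI), activity from arachidonic acid/d8 ratio.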

Row | SMILES | IC50
1 | COc1cccc(C(=O)N2CCN3C[C@@](O)(c4cc(-c5ccccc5)no4)OC[C@@H]3C2)c1Cl [Example 143, [(3S,9aS)-3-hydroxy-3-(3-phenylisoxazol-5-yl)-1,4,6,7,9,9a-hexahydropyrazino[2,1-c][1,4]oxazin-8-yl]-(2-chloro-3-methoxy-phenyl)methanone] | 348 nM
2 | COc1cccc(C(=O)N2CCN3C[C@@](O)(c4cc(F)c(F)cc4F)OC[C@@H]3C2)c1Cl [Example 144, [(3R,9aS)-3-hydroxy-3-(2,4,5-trifluorophenyl)-1,4,6,7,9,9a-hexahydropyrazino[2,1-c][1,4]oxazin-8-yl]-(2-chloro-3-methoxy-phenyl)methanone] | 355 nM
3 | COc1cccc(C(=O)N2CCN3CC(c4ccc(F)c(-c5cnco5)c4)OC[C@@H]3C2)c1Cl (stereo partly drawn) [Example 145, [(9aS)-3-(4-fluoro-3-oxazol-5-yl-phenyl)-3,4,6,7,9,9a-hexahydro-1H-pyrazino[2,1-c][1,4]oxazin-8-yl]-(2-chloro-3-methoxy-phenyl)methanone] | 363 nM
4 | COc1cccc(C(=O)N2CCN3C[C@@](O)(c4nc5ccccc5s4)OC[C@@H]3C2)c1Cl [Example 146, [(3S,9aS)-3-(1,3-benzothiazol-2-yl)-3-hydroxy-1,4,6,7,9,9a-hexahydropyrazino[2,1-c][1,4]oxazin-8-yl]-(2-chloro-3-methoxy-phenyl)methanone] | 378 nM
5 | COc1ccc(F)c(C(=O)N2CCN3C[C@@H](c4cc(Cl)c[nH]c4=O)OC[C@@H]3C2)c1Cl [Example 147, 3-[(3R,9aS)-8-(2-chloro-6-fluoro-3-methoxy-benzoyl)-3,4,6,7,9,9a-hexahydro-1H-pyrazino[2,1-c][1,4]oxazin-3-yl]-5-chloro-1H-pyridin-2-one] | 385 nM
6 | COc1cccc(C(=O)N2CCN3C[C@@H](c4ccc(Cl)c(C(F)(F)F)n4)OC[C@@H]3C2)c1Cl [Example 148, [(3S,9aS)-3-[5-chloro-6-(trifluoromethyl)-2-pyridyl]-3,4,6,7,9,9a-hexahydro-1H-pyrazino[2,1-c][1,4]oxazin-8-yl]-(2-chloro-3-methoxy-phenyl)methanone] | 426 nM
7 | COc1cccc(C(=O)N2CCN3C[C@@H](c4cccc(F)c4F)OC[C@@H]3C2)c1Cl [Example 149, [(3R,9aS)-3-(2,3-difluorophenyl)-3,4,6,7,9,9a-hexahydro-1H-pyrazino[2,1-c][1,4]oxazin-8-yl]-(2-chloro-3-methoxy-phenyl)methanone] | 468 nM
8 | COc1cccc(C(=O)N2CCN3C[C@@](O)(c4ccccc4Cl)OC[C@@H]3C2)c1Cl [Example 150, [(3R,9aS)-3-(2-chlorophenyl)-3-hydroxy-1,4,6,7,9,9a-hexahydropyrazino[2,1-c][1,4]oxazin-8-yl]-(2-chloro-3-methoxy-phenyl)methanone] | 546 nM
9 | N#Cc1cc(-c2cc(F)cc(C(=O)N3CCN4C[C@H](c5c[nH]c(C(F)(F)F)cc5=O)OC[C@@H]4C3)c2Cl)c[nH]1 [Example 151, 4-[3-[(3S,9aS)-3-[4-oxo-6-(trifluoromethyl)-1H-pyridin-3-yl]-3,4,6,7,9,9a-hexahydro-1H-pyrazino[2,1-c][1,4]oxazine-8-carbonyl]-2-chloro-5-fluoro-phenyl]-1H-pyrrole-2-carbonitrile] | 575 nM
10 | N#Cc1ncc(-c2cccc(C(=O)N3CCN4C[C@@](O)(c5ccc(F)c(F)c5)OC[C@@H]4C3)c2Cl)[nH]1 [Example 152, 5-[3-[(3R,9aS)-3-(3,4-difluorophenyl)-3-hydroxy-1,4,6,7,9,9a-hexahydropyrazino[2,1-c][1,4]oxazine-8-carbonyl]-2-chloro-phenyl]-1H-imidazole-2-carbonitrile] | 581 nM
11 | COc1cccc(C(=O)N2CCN3C[C@@](O)(c4ccc(C(F)(F)F)nc4C)OC[C@@H]3C2)c1Cl [Example 153, [(3R,9aS)-3-hydroxy-3-[2-methyl-6-(trifluoromethyl)-3-pyridyl]-1,4,6,7,9,9a-hexahydropyrazino[2,1-c][1,4]oxazin-8-yl]-(2-chloro-3-methoxy-phenyl)methanone] | 705 nM
12 | COc1cccc(C(=O)N2CCN3C[C@@](O)(c4cc(Cl)cc(-c5cnco5)c4)OC[C@@H]3C2)c1Cl [Example 154, [(3R,9aS)-3-(3-chloro-5-oxazol-5-yl-phenyl)-3-hydroxy-1,4,6,7,9,9a-hexahydropyrazino[2,1-c][1,4]oxazin-8-yl]-(2-chloro-3-methoxy-phenyl)methanone] | 769 nM

The next compounds have a lower IC50 than those just listed; values first:

Row | IC50 | SMILES
13 | 117 nM | COc1cccc(C(=O)N2CCN3C[C@@](O)(c4ccc(F)c(F)c4F)OC[C@@H]3C2)c1Cl [Example 130, [(3R,9aS)-3-hydroxy-3-(2,3,4-trifluorophenyl)-1,4,6,7,9,9a-hexahydropyrazino[2,1-c][1,4]oxazin-8-yl]-(2-chloro-3-methoxy-phenyl)methanone]
14 | 118 nM | COc1cccc(C(=O)N2CCN3C[C@@](O)(c4cc(Br)c(OC)s4)OC[C@@H]3C2)c1Cl [Example 131, [(3S,9aS)-3-(4-bromo-5-methoxy-2-thienyl)-3-hydroxy-1,4,6,7,9,9a-hexahydropyrazino[2,1-c][1,4]oxazin-8-yl]-(2-chloro-3-methoxy-phenyl)methanone]
15 | 131 nM | N#Cc1cc(-c2cc(F)cc(C(=O)N3CCN4C[C@@H](c5c[nH]c(C(F)(F)F)cc5=O)OC[C@@H]4C3)c2Cl)c[nH]1 [Example 132, 4-[3-[(3R,9aS)-3-[4-oxo-6-(trifluoromethyl)-1H-pyridin-3-yl]-3,4,6,7,9,9a-hexahydro-1H-pyrazino[2,1-c][1,4]oxazine-8-carbonyl]-2-chloro-5-fluoro-phenyl]-1H-pyrrole-2-carbonitrile]
16 | 142 nM | O=C(c1cc(F)cc(-c2c[nH]nc2F)c1Cl)N1CCN2C[C@@H](c3cc(Cl)c[nH]c3=O)OC[C@@H]2C1 [Example 133, 3-[(3R,9aS)-8-[2-chloro-5-fluoro-3-(3-fluoro-1H-pyrazol-4-yl)benzoyl]-3,4,6,7,9,9a-hexahydro-1H-pyrazino[2,1-c][1,4]oxazin-3-yl]-5-chloro-1H-pyridin-2-one]
17 | 144 nM | O=C(c1cccc(-c2n[nH]c(=O)o2)c1Cl)N1CCN2C[C@@H](c3ccc(F)c(Cl)c3)OC[C@@H]2C1 [Example 134, 5-[3-[(3R,9aS)-3-(3-chloro-4-fluoro-phenyl)-3,4,6,7,9,9a-hexahydro-1H-pyrazino[2,1-c][1,4]oxazine-8-carbonyl]-2-chloro-phenyl]-3H-1,3,4-oxadiazol-2-one]
18 | 146 nM | COc1cccc(C(=O)N2CCN3C[C@@H](c4cc(Cl)c(F)c(C#N)c4)OC[C@@H]3C2)c1Cl [Example 135, 5-[(3R,9aS)-8-(2-chloro-3-methoxy-benzoyl)-3,4,6,7,9,9a-hexahydro-1H-pyrazino[2,1-c][1,4]oxazin-3-yl]-3-chloro-2-fluoro-benzonitrile]
19 | 152 nM | COc1cccc(C(=O)N2CCN3C[C@@](O)(c4ccc(C(F)(F)F)[nH]c4=O)OC[C@@H]3C2)c1Cl [Example 136, 3-[(3R,9aS)-8-(2-chloro-3-methoxy-benzoyl)-3-hydroxy-1,4,6,7,9,9a-hexahydropyrazino[2,1-c][1,4]oxazin-3-yl]-6-(trifluoromethyl)-1H-pyridin-2-one]
20 | 182 nM | COc1cccc(C(=O)N2CCN3C[C@@H](c4ccc(-c5cnco5)c(Cl)c4)OC[C@@H]3C2)c1Cl [Example 137, [(3R,9aS)-3-(3-chloro-4-oxazol-5-yl-phenyl)-3,4,6,7,9,9a-hexahydro-1H-pyrazino[2,1-c][1,4]oxazin-8-yl]-(2-chloro-3-methoxy-phenyl)methanone]
21 | 190 nM | N#Cc1cc(-c2cccc(C(=O)N3CCN4C[C@@H](c5ccc(F)c(Cl)c5)OC[C@@H]4C3)c2Cl)n[nH]1 [Example 138, 3-[3-[(3R,9aS)-3-(3-chloro-4-fluoro-phenyl)-3,4,6,7,9,9a-hexahydro-1H-pyrazino[2,1-c][1,4]oxazine-8-carbonyl]-2-chloro-phenyl]-1H-pyrazole-5-carbonitrile]
22 | 254 nM | COc1cccc(C(=O)N2CCN3C[C@@](O)(c4csc(-c5ccc(F)cc5)n4)OC[C@@H]3C2)c1Cl [Example 139, [(3S,9aS)-3-[2-(4-fluorophenyl)thiazol-4-yl]-3-hydroxy-1,4,6,7,9,9a-hexahydropyrazino[2,1-c][1,4]oxazin-8-yl]-(2-chloro-3-methoxy-phenyl)methanone]
23 | 277 nM | O=C(c1cccc(-c2n[nH]cc2F)c1Cl)N1CCN2C[C@@H](c3cc(Cl)c[nH]c3=O)OC[C@@H]2C1 [Example 140, 3-[(3R,9aS)-8-[2-chloro-3-(4-fluoro-1H-pyrazol-3-yl)benzoyl]-3,4,6,7,9,9a-hexahydro-1H-pyrazino[2,1-c][1,4]oxazin-3-yl]-5-chloro-1H-pyridin-2-one]
24 | 288 nM | COc1cccc(C(=O)N2CCN3C[C@@](O)(c4cccc(C(F)(F)F)c4)OC[C@@H]3C2)c1Cl [Example 141, [(3R,9aS)-3-hydroxy-3-[3-(trifluoromethyl)phenyl]-1,4,6,7,9,9a-hexahydropyrazino[2,1-c][1,4]oxazin-8-yl]-(2-chloro-3-methoxy-phenyl)methanone]
25 | 332 nM | COc1cccc(C(=O)N2CCN3C[C@@](O)(c4cccc(F)c4F)OC[C@@H]3C2)c1Cl [Example 142, [(3R,9aS)-3-(2,3-difluorophenyl)-3-hydroxy-1,4,6,7,9,9a-hexahydropyrazino[2,1-c][1,4]oxazin-8-yl]-(2-chloro-3-methoxy-phenyl)methanone]
